Test results from patent US10073083B2, “Prophylactic and therapeutic agents for FGFR3 diseases and screening method for the same” (KYOTO UNIVERSITY, priority 2013, dated 2018).
Ends that are not written are not given here. Peptide text beside a SMILES is read from it. * marks the point of attachment. Cbz = O=C(OCc1ccccc1)*

How the values were obtained:
TD-iPSCs [1] = assay: Chondrogenic differentiation of TD-iPSCs, cartilaginous extracellular matrix by safranin O staining; type: cell-based, human; details: day 42; for chondrogenic differentiation of TD-iPSCs (safranin O): TD714-3, CNP 100 nM, NF449 25 μM, FGFR inhibitor 1 μM, IGF1R inhibitor 1 nM; for chondrogenic differentiation / cartilage formation of TD-iPSCs (safranin O): statin 1 μM in cartilage differentiation medium
Method: (§1) The iPS cell lines were transferred to Matrigel (Invitrogen)-coated dishes, then Essential 8 medium (Life Technologies) supplemented with 50 units/ml penicillin and 50 μg/ml streptomycin was added, and the cell lines were cultured for undifferentiated maintenance under the feeder-free conditions. The iPS cell lines formed colonies that consisted of 1 to 2×10^5 cells 10 to 15 days after seeding, and the medium was changed to mesodermal differentiation medium (DMEM/F12 supplemented with 10 ng/ml Wnt3A (R&D), 10 ng/ml activin A (R&D), 1% insulin-transferrin-sodium selenite (Invitrogen), 1% fetal calf serum, 50 units/ml penicillin and 50 μg/ml streptomycin) (day zero of differentiation). Three days after (day 3 of differentiation), the medium was changed to cartilage differentiation medium (DMEM/F12 supplemented with 50 μg/ml ascorbic acid, 10 ng/ml BMP2 (Osteopharma), 10 ng/ml TGFβ (PeproTech), 10 ng/ml GDF5, 1% insulin-transferrin-sodium selenite, 1% FBS, 50 units/ml penicillin and 50 μg/ml streptomycin). Eleven days after (day 14 of differentiation), the cells were physically separated from the dishes, and transferred to a suspension culture in the same medium. Fourteen days after transfer (day 28 of differentiation) and 28 days after transfer (day 42 of differentiation), the cells formed particles and the particles were harvested for analyses. The culture medium was changed every 2 to 7 days during differentiation.
FGFR3 neutralizing antibody was added to the medium during the chondrogenic differentiation of TD-iPSCs to inhibit FGFR3 activity, and chondrocyte formation was assessed. The FGFR3 neutralizing antibody (Santa Cruz (sc-13121)) was added as 1 μl of an antibody solution (200 ng/ml) in 1 ml of cartilage differentiation medium. As a control, IgG (Cell Signaling, #27295) was used. The chondrogenic differentiation was performed in the same manner as in Example 2, and the cartilaginous particles were assessed on days 28 and 42 of differentiation.
(§2) Several drugs that had previously been reported to affect FGFR3 signaling and/or chondrocyte differentiation (CNP, NF449, a FGFR inhibitor, and an IGF1R inhibitor) were selected, and their ability to rescue TD-iPSCs from failure of chondrogenic differentiation was investigated. The stock CNP (Sigma, N8768), NF449 (Abcam, ab120415), a FGFR inhibitor (PD 173047, Cayman) and an IGF1R inhibitor (IGF-1R inhibitor, PPP. Calbiochem, 407247) solutions were prepared at a concentration of 100 μM, 50 mM, 1 mM, 1 μM, respectively. The stock solutions were added to cartilage differentiation medium at the final concentrations of CNP, NF449, the FGFR inhibitor and the IGF1R inhibitor of 100 nM, 25 μM 1 μM, and 1 nM, respectively (day 3 of differentiation). TD-iPSCs were chondrogenically differentiated in the same manner as in Example 2, and the cartilaginous particles were assessed on days 28 and 42 of differentiation. As a control, an equal volume of water or DMSO was added to the medium. mRNA expression analysis was performed in the same manner as in Example 1.
To investigate whether lovastatin rescues TD-iPSCs from failure of chondrogenic differentiation, evaluation was performed in the same manner as in Example 4. A stock lovastatin (TCI, L0214) solution was prepared by dissolving it in DMSO at a concentration of 10 mM, and the solution was added to cartilage differentiation medium at a final concentration of 1 μM.

TD-iPSCs [2] = assay: Real-time RT-PCR expression analysis of chondrocyte and fibroblast marker genes in chondrogenically differentiated TD-iPSCs; type: cell-based, human; details: TD714-3; CNP 100 nM, IGF1R inhibitor 1 nM; day 28
Method: mRNAs were isolated from the cell lines using RNeasy Mini Kit (Qiagen). A total of 500 ng of the total RNA was used as a template for cDNA synthesis by reverse transcription using ReverTra Ace system (TOYOBO). Standard curves for quantitative PCR (real-time PCR) were established and used for analyses. Real-time PCR analysis was performed in Step One system (ABI) using KAPA SYBR FAST qPCR kit Master Mix ABI Prism (KAPA BIOSYSTEMS).
as §1, §2

FGFR3 = assay: Western blotting of FGFR3 in primary chondrocytes; type: cell-based, mouse
Method: Cell lysates were separated by SDS-PAGE. The separated proteins were immunostained with anti-FGFR3 antibody (Cell Signaling, #4574), anti-phosphorylated MAPK antibody (Cell Signaling, #9109) or anti-β-actin antibody (Cell Signaling, #49776).
The investigation of the effects of the inhibitors was performed as follows. A total of 2.5×10^5 primary chondrocytes were plated in each well of a six-well plate, and were cultured in the presence or absence of 1 μM lovastatin for 2 days. Then, the culture was supplemented with […] MG132, 100 nM Baf A1 or vehicle. Two hours later, the culture was further supplemented with 50 ng/ml FGF9 (PeproTech) and incubated at 4° C. for 2 hours. Then cells were collected and subjected to analysis by Western blotting.

FGFR3^Ach mice = assay: Bone growth of ACH model mice treated with statins, X-ray imaging; type: in vivo, mouse; details: day 3 to day 14, 15 days old
Method: The FGFR3^Ach mice were crossed with wild-type mice (C57BL/6 background). A rosuvastatin solution at a dose of 1.0 mg/kg was intraperitoneally administered to the crossed mice 6 times per week from 3 days after birth until day 14. The mice were euthanized on day 15, and the bodies and the bone formation were examined by X-ray imaging (Faxitron DX-50). Genomic DNA was extracted from the toes of each mouse and subjected to genotype analysis. Also, a lovastatin solution at a dose of 0.4 mg/kg was intraperitoneally administered to the crossed mice 6 times per week from day 3 after birth until day 28, and the mice were euthanized on day 29 for examination of the bodies and the bone formation in the same manner as above.

[3] = tested on: TD-iPSC-derived cartilaginous particles; assay: Incorporation of BrdU by TD-iPSC-derived cartilaginous particles; type: cell-based, human; details: presence vs absence of statin, 1 μM; day 28
[4] = rosuvastatin 1.0 mg/kg intraperitoneally 6 times per week

O=C(Nc1cc(C(=O)Nc2ccc(S(=O)(=O)O)cc2S(=O)(=O)O)cc(C(=O)Nc2ccc(S(=O)(=O)O)cc2S(=O)(=O)O)c1)Nc1cc(C(=O)Nc2ccc(S(=O)(=O)O)cc2S(=O)(=O)O)cc(C(=O)Nc2ccc(S(=O)(=O)O)cc2S(=O)(=O)O)c1 [NF449]
chondrogenic differentiation of TD-iPSCs (safranin O) (TD-iPSCs [1]): had no effect on the chondrogenic differentiation of TD-iPSCs

COc1cc([C@@H]2c3cc4c(cc3[C@H](O)[C@H]3COC(=O)[C@@H]23)OCO4)cc(OC)c1OC [IGF1R inhibitor]
expression of chondrocyte marker genes (SOX9, COL2, AGGRECAN) (TD-iPSCs [2]): increased the expression of chondrocyte marker genes
expression of fibroblast marker genes (COL1A1, COL1A2) (TD-iPSCs [2]): decreased the expression of fibroblast marker genes
chondrogenic differentiation of TD-iPSCs (safranin O) (TD-iPSCs [1]): rescued TD-iPSCs from failure of chondrogenic differentiation

CCN(CC)CCCCNc1ncc2cc(-c3cc(OC)cc(OC)c3)c(NC(=O)NC(C)(C)C)nc2n1 [FGFR inhibitor, PD 173047]
chondrogenic differentiation of TD-iPSCs (safranin O) (TD-iPSCs [1]): had no effect on the chondrogenic differentiation of TD-iPSCs

CC(C)c1c(C(=O)Nc2ccccc2)c(-c2ccccc2)c(-c2ccc(F)cc2)n1CC[C@@H](O)C[C@@H](O)CC(=O)O [atorvastatin]
chondrogenic differentiation / cartilage formation of TD-iPSCs (safranin O) (TD-iPSCs [1]): rescued abnormal cartilage formation in the TD-iPSC-derived chondrocytes

CC[C@H](C)C(=O)O[C@H]1CCC=C2C=C[C@H](C)[C@H](CC[C@@H]3C[C@@H](O)CC(=O)O3)[C@H]21 [mevastatin]
chondrogenic differentiation / cartilage formation of TD-iPSCs (safranin O) (TD-iPSCs [1]): rescued abnormal cartilage formation in the TD-iPSC-derived chondrocytes

CO/C1=C\C(C)=C\[C@@H](C)[C@@H](O)[C@@H](C)C/C(C)=C/C=C/[C@H](OC)[C@@H]([C@@H](C)[C@@H](O)[C@H](C)[C@@]2(O)C[C@@H](O)[C@H](C)[C@@H](C(C)C)O2)OC1=O [Bafilomycin A1]
expression of FGFR3 (FGFR3; FGFR3^Ach chondrocytes in the presence of 1 μM lovastatin, 100 nM Baf A1): slightly increased

CC(C)C[C@@H](C=O)NC(=O)[C@H](CC(C)C)NC(=O)[C@H](CC(C)C)NC(=O)OCc1ccccc1 [MG132] (Cbz-Leu-Leu-Leu-aldehyde)
amount of FGFR3 (FGFR3; FGFR3^Ach chondrocytes cultured in the presence of 1 μM lovastatin, 10 mM MG132): increased the amount of FGFR3

c-type natriuretic peptide (GLSKGCFGLKLDRIGSMSGLGC; ends and bridges not checked; cysteine pairing not given here; UniProt P23582 105-126, looked up) [CNP, c-type natriuretic peptide (Sigma, N8768)]
expression of chondrocyte marker genes (SOX9, COL2, AGGRECAN) (TD-iPSCs [2]): increased the expression of chondrocyte marker genes
expression of fibroblast marker genes (COL1A1, COL1A2) (TD-iPSCs [2]): decreased the expression of fibroblast marker genes
chondrogenic differentiation of TD-iPSCs (safranin O) (TD-iPSCs [1]): rescued TD-iPSCs from failure of chondrogenic differentiation

CC(C)c1nc(N(C)S(C)(=O)=O)nc(-c2ccc(F)cc2)c1/C=C/[C@@H](O)C[C@@H](O)CC(=O)O [rosuvastatin]
anteroposterior lengths of the skulls (Cranial A-P) (FGFR3^Ach mice; [4]): increased
lengths of the femurs (Femur) (FGFR3^Ach mice; [4]): increased
lengths of the tibiae (Tibia) (FGFR3^Ach mice; [4]): increased
lengths of the ulnas (Ulna) (FGFR3^Ach mice; [4]): increased
differences in the lengths vs wild-type mice receiving vehicle (FGFR3^Ach mice; rosuvastatin 1.0 mg/kg intraperitoneally, t-test): no significant differences
number of BrdU-positive cells [3]: significantly increased the number of BrdU-positive cells
chondrogenic differentiation / cartilage formation of TD-iPSCs (safranin O) (TD-iPSCs [1]): rescued abnormal cartilage formation in the TD-iPSC-derived chondrocytes
